From patent publication US11090304B2 (Amgen Inc., priority 2018, dated 2021)
Read-outs that look alike come from different tables or passages of the source.

Legend:
[1] = molecular target: GDP-bound KRAS protein (aa 1-169), containing both G12C and C118A amino acid substitutions (Homo sapiens, UniProt P01116, C118A/G12C); assay: Coupled nucleotide exchange assay (SOS-mediated, AlphaScreen); assay type: biochemical; settings: 5 min compound pre-incubation
[2] = test system: Phosphorylation of ERK1/2 in MIA PaCa-2 cells; assay: Phospho-ERK1/2 MSD assay in MIA PaCa-2 cells; assay type: cell-based; settings: read-out: p-ERK IC50 (2 h; MIA PaCa-2), 2 h compound treatment
Summary of the method: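 IC50 comes from a 4-parameter logistic fit of MSD phospho-ERK1/2 signal in lysates. Before lysis, MIA PaCa-2 or A549 cells were exposed to titrated compound for 2 or 4 h at 37 °C, followed by a 10 min 10 ng/mL EGF stimulus.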

Compound	Coupled exchange IC50 (5 min) [1]	IC50 ([2]; Homo sapiens, MIA PaCa-2, 2 h) [nM]	IC50 [2] [nM]	IC50 ([1]; read-out: Coupled exchange IC50 (5 min)) [nM]
C=CC(=O)N1CCN(c2nc(=O)n(-c3c(C)ccnc3CC)c3nc(-c4c(O)cccc4F)c(F)cc23)[C@@H](C)C1 [Example 57-1, 1-(2-Ethyl-4-methyl-3-pyridinyl)-6-fluoro-7-(2-fluoro-6-hydroxyphenyl)-4-((2S)-2-methyl-4-(2-propenoyl)-1-piperazinyl)pyrido[2,3-d]pyrimidin-2(1H)-one]	0.835 | nda μM	171	–	–
C=CC(=O)N1CCN(c2nc(=O)n(-c3ncccc3CC)c3nc(-c4ccccc4F)c(Cl)cc23)[C@@H](C)C1 [Example 54-15, 6-chloro-1-(3-ethyl-2~ pyridinyl)-7-(2-fluorophenyl)-4-((2S)-2-methyl-4-(2-propenoyl)-1-piperazinyl) pyrido[2,3-d]pyrimidin-2(1H)-one]	0.564 | nda μM	347	–	–
C=CC(=O)N1CCN(c2nc(=O)n(-c3c(C)ccnc3C(C)C)c3nc(-c4ccccc4F)c(C)cc23)[C@@H](C)C1 (single isomer, unassigned) [Example 74-2-1]	0.26 | nda μM	–	136	–
C=CC(=O)N1CCN(c2nc(=O)n(-c3c(C(C)C)ncnc3N(C)C)c3nc(-c4ccccc4F)c(Cl)cc23)[C@@H](C)C1 [Example 140, 6-Chloro-1-(4-(dimethylamino)-6-(2-propanyl)-5-pyrimidinyl)-7-(2-fluorophenyl)-4-((2S)-2-methyl-4-(2-propenoyl)-1-piperazinyl)pyrido[2,3-d]pyrimidin-2(1H)-one]	0.09 | nda μM	96	–	–
C=CC(=O)N1CCN(c2nc(=O)n(-c3c(C)ccnc3C(C)C)c3nc(-c4cc(O)ccc4F)c(F)cc23)[C@@H](C)C1 (single isomer, unassigned) [Example 58-5-2]	0.216 | nda μM	743	–	–
C=CC(=O)N1CCN(c2nc(=O)n(-c3c(C)cc(CN(C)C)cc3C(C)C)c3nc(-c4ccccc4F)c(Cl)cc23)[C@@H](C)C1 (single isomer, unassigned) [Example 80-1-2]	0.556 | nda μM	–	236	–
6-Chloro-7-(2-fluoro-6-hydroxyphenyl)-4-((2S)-2-methyl-4-(2-propenoyl)-1-piperazinyl)-1-(2-(methylsulfonyl)phenyl)pyrido[2,3-d]pyrimidin-2(1H)-one [Example 54-1]	–	–	109	225
C=CC(=O)N1CCN(c2nc(=O)n(-c3c(C)ccnc3CC)c3nc(-c4c(O)cccc4F)c(Cl)cc23)[C@@H](C)C1 (single isomer, unassigned) [Example 55-10-2]	0.266 | nda μM	–	344	–
C=CC(=O)N1CCN(c2nc(=O)n(-c3ccccc3C(C)C)c3nc(-c4cc(O)ccc4Cl)c(Cl)cc23)[C@@H](C)C1 [Example 54-90, 6-chloro-7-(2-chloro-5-hydroxy-phenyl)-4-((2S)-2-methyl-4-(2-propenoyl)-1-piperazinyl)-1-(2-(2-propanyl)phenyl)pyrido [2,3-d]pyrimidin-2(1H)-one]	0.105 | nda μM	121	–	–
C=CC(=O)N1CCN(c2nc(=O)n(-c3cncnc3C(C)(C)C)c3nc(-c4ccccc4F)c(Cl)cc23)[C@@H](C)C1 (single isomer, unassigned) [Example 54-110-2]	0.194 | nda μM	119	–	–
C=CC(=O)N1CCN(c2nc(=O)n(-c3ccnn3C3CCC3)c3nc(-c4c(O)cccc4F)c(Cl)cc23)[C@@H](C)C1 [Example 54-28, 6~chloro-1-(1-cyclobutyl-1H-pyrazol-5-yl)-7-(2-fluoro-6-hydroxyphenyl)-4-((2S)-2-methyl-4-(2-propenoyl)-1-piperazinyl) pyrido[2,3-d]pyrimidin-2(1H)-one]	0.19 | nda μM	245	–	–
C=CC(=O)N1CCN(c2nc(=O)n(-c3scnc3C(C)C)c3nc(-c4ccccc4F)c(Cl)cc23)[C@@H](C)C1 [Example 55-18, 6-chloro-7-(2-fluorophenyl)-4-((2S)-2-methyl-4-(2-propenoyl)-1-piperazinyl)-1-(4-(2-propanyl)-1,3-thiazol-5-yl)pyrido[2,3-d]pyrimidin-2(1H)-one]	0.067 | nda μM	83	–	–
C=CC(=O)N1CCN(c2nc(=O)n(-c3ccccc3C(C)C)c3nc(-c4cc(OC)ccc4F)c(Cl)cc23)[C@@H](C)C1 [Example 56-9, 6-chloro-7-(2-fluoro-5-methoxyphenyl)-4-((2S)-2-methyl-4-(2-propenoyl)-1-piperazinyl)-1-(2-(2-propanyl)phenyl)pyrido[2,3-d]pyrimidin-2(1H)-one]	0.269 | nda μM	160	–	–
C=CC(=O)N1CCN(c2nc(=O)n(-c3cccnc3C(C)C)c3nc(-c4ccccc4F)c(Cl)cc23)[C@@H](C)C1 (single isomer, unassigned) [Example 54-9-2]	0.046 | nda μM	–	34	–
C=CC(=O)N1CCN(c2nc(=O)n(-c3nccnc3CC)c3nc(-c4ccccc4F)c(Cl)cc23)[C@@H](C)C1 [Example 54-38, 6-chloro-1-(3-ethyl-2-pyrazinyl)-7-(2-fluorophenyl)-4-((2S)-2-methyl-4-(2-propenoyl)-1-piperazinyl) pyrido[2,3-d]pyrimidin-2(1H)-one]	0.651 | nda μM	297	–	–
C=CC(=O)N1CCN(c2nc(=O)n(-c3ccccc3N(C)C)c3nc(-c4c(O)cccc4F)c(Cl)cc23)[C@@H](C)C1 [Example 54-42, 6-chloro-1-(2-(dimethylamino)phenyl)-7-(2-fluoro-6-hydroxyphenyl)-4-((2S)-2-methyl-4-(2-propenoyl)-1-piperazinyl) pyrido[2,3-d]pyrimidin-2(1H)-one]	0.79 | nda μM	322	–	–

Second part, the compound after the results:

Coupled exchange IC50 (5 min) [1]	IC50 ([2]; Homo sapiens, MIA PaCa-2, 2 h) [nM]	IC50 [2] [nM]	IC50 ([1]; read-out: Coupled exchange IC50 (5 min)) [nM]	Compound
0.553 | nda μM	556	–	–	C=CC(=O)N1CCN(c2nc(=O)n(-c3c(C(C)C)ccnc3C)c3nc(-c4ccccc4F)c(F)cc23)[C@@H](C)C1 [Example 58-16, 6-fluoro-7-(2-fluorophenyl)-1-(2-methyl-4-(2-propanyl)-3-pyridinyl)-4-((2S)-2-methyl-4-(2-propenoyl)-1-piperazinyl)pyrido[2,3-d]pyrimidin-2(1H)-one]
0.241 | nda μM	375	–	–	C=CC(=O)N1CCN(c2nc(=O)n(-c3c(C)ccnc3C(C)C)c3nc(-c4cc(OC(F)(F)F)ccc4F)c(Cl)cc23)[C@@H](C)C1 (atropisomer, axis not shown; (M)) [Example 73-7, (M)-6-chloro-7-(2-fluoro-5-(trifluoromethoxy)phenyl)-1-(4-methyl-2-(2-propanyl)-3-pyridinyl)-4-((2S)-2-methyl-4-(2-propenoyl)-1-piperazinyl)pyrido[2,3-d]pyrimidin-2(1H)-one]
0.053 | nda μM	62	–	–	C=CC(=O)N1CCN(c2nc(=O)n(-c3c(C#N)cccc3C(C)C)c3nc(-c4ccccc4F)c(Cl)cc23)[C@@H](C)C1 [Example 60-20, 2-(6-chloro-7-(2-fluorophenyl)-4-((2S)-2-methyl-4-(2-propenoyl)-1-piperazinyl)-2-oxopyrido[2,3-d]pyrimidin-1(2H)-yl)-3-(2-propanyl)benzonitrile]
0.015 | nda μM	4	–	–	C=CC(=O)N1C[C@H](C)N(c2nc(=O)n(-c3c(C)ccnc3C(C)C)c3nc(-c4c(N)cccc4F)c(Cl)cc23)[C@@H](C)C1 (atropisomer, axis not shown; (M)) [Example 73-15, (M)-7-(2-amino-6-fluorophenyl)-6-chloro-4-((2S,6S)-2,6-dimethyl-4-(2-propenoyl)-1-piperazinyl)-1-(4-methyl-2-(2-propanyl)-3-pyridinyl)pyrido[2,3-d]pyrimidin-2(1H)-one]
0.393 | nda μM	437	–	–	C=CC(=O)N1CCN(c2nc(=O)n(-c3c(C)ccnc3C(C)C)c3nc(-c4cc(N)ccc4Cl)c(F)cc23)[C@@H](C)C1 [Example 58-8, 7-(5-amino-2-chlorophenyl)-6-fluoro-1-(4-methyl-2-(2-propanyl)-3-pyridinyl)-4-((2S)-2-methyl-4-(2-propenoyl)-1-piperazinyl)pyrido[2,3-d]pyrimidin-2(1H)-one]
0.059 | nda μM	104	–	–	C=CC(=O)N1CCN(c2nc(=O)n(-c3c(C)ccnc3C(C)C)c3nc(-c4cc(OC)ccc4F)c(Cl)cc23)[C@@H](C)C1 (atropisomer, axis not shown; (M)) [Example 73-6, (M)-6-chloro-7-(2-fluoro-5-methoxyphenyl)-1-(4-methyl-2-(2-propanyl)-3-pyridinyl)-4-((2S)-2-methyl-4-(2-propenoyl)-1-piperazinyl)pyrido[2,3-d]pyrimidin-2(1H)-one]
0.137 | nda μM	156	–	–	C=CC(=O)N1CCN(c2nc(=O)n(-c3c(OC)cccc3C(C)C)c3nc(-c4ccccc4F)c(Cl)cc23)[C@@H](C)C1 [Example 60-19, 6-chloro-7-(2-fluorophenyl)-1-(2-methoxy-6-(2-propanyl)phenyl)-4-((2S)-2-methyl-4-(2-propenoyl)-1-piperazinyl)pyrido[2,3-d]pyrimidin-2(1H)-one]
0.01 | nda μM	10	–	–	C=CC(=O)N1C[C@@H](C)N(c2nc(=O)n(-c3c(C)ccnc3C(C)C)c3nc(-c4c(N)cccc4F)c(Cl)cc23)[C@@H](C)C1 (atropisomer, axis not shown; (M)) [Example 73-12, (M)-7-(2-amino-6-fluorophenyl)-6-chloro-4-(cis-2,6-dimethyl-4-(2-propenoyl)-1-piperazinyl)-1-(4-methyl-2-(2-propanyl)-3-pyridinyl)pyrido[2,3-d]pyrimidin-2(1H)-one]
